Consider 53 compounds from patent US8148577B2, “Polyamines useful as anti-parasitic and anti-cancer therapeutics and as lysine-specific demethylase inhibitors” (The Johns Hopkins University, priority 2005, dated 2012).

The first assay concerns H157 (non-small cell lung carcinoma) cells. Description: 96 hr MTS dose response experiment in H157 cells. The class given is cell-based, human. The settings on record: 96 hr exposure, a range means IC50 lies between the two tested concentrations. As for the experimental part: MTS dose response experiments in H157, H82, and A549 cells following a 96 hr exposure with select compounds were performed. MTS is a standard colorimetric assay used for measuring metabolic activity in cells. MTS experiments were performed by CellTiter 96® AQueuos One Solution Cell Proliferation Assay from Promega Corporation. Briefly, the cells were seeded at 3000 cells/well on a 96 well tissue culture plate containing 100 ul of medium/well and allowed to attach overnight. The medium was then aspirated and replaced with 100 ul of fresh medium containing the appropriate concentration of the compound being tested and incubated for 96 hrs at 37° C. and 5% CO2. Compounds are routinely tested at concentrations ranging from 0.1 micromolar to 50 micromolar. Wells not containing the test compound were present and used as a control. Following treatment, 20 ul of MTS reagent was added to each well and incubated at 37° C. for 1.5 hrs. The absorbance of each well was then measured at 490 nm and used to determine the metabolic activity of the cells in the presence of the test compound, relative to the control. IC50 values for the test compounds were extracted based on the results.
Note that the results for a 72 hr exposure in addition to the 96 hr exposure are shown for compound 49-TDW-29C in the H157 cells. […] FIG. 1 depicts the results of a 96 hr MTS dose response experiments for compound 46-TDW-23c in H157, A549, H82 and Beas2B cells. FIG. 2 depicts the results of a 96 hr MTS dose response experiments for compound 49-TDW-9 in H157, A549, H82 and Beas2B cells. FIG. 3 depicts the results of a 96 hr MTS dose response experiments for compound 42-TDW-21c in H157, A549, H82 and Beas2B cells. FIG. 4 depicts the results of a 96 hr MTS dose response experiments for compound 46-TDW-19c in H157, A549, H82 and Beas2B cells. FIG. 5 depicts the results of a 96 hr MTS dose response experiments for compound 49-TDW-17c in H157, A549, H82 and Beas2B cells. FIG. 6 depicts the results of a 96 hr MTS dose response experiments for compound 40-TDW-37 in H157, A549, H82 and Beas2B cells. FIG. 7 depicts the results of a 96 hr MTS dose response experiments for compound 42-TDW-4 in H157, A549, H82 and Beas2B cells. FIG. 8 depicts the results of a 96 hr MTS dose response experiments for compound 49-TDW-29c in H157, A549, H82 and Beas2B cells. FIG. 9 depicts the results of a 96 hr MTS dose response experiments for compound 49-TDW-32c in H157, A549, H82 and Beas2B cells. FIG. 10 depicts the results of a 96 hr MTS dose response experiments for compound 46-TDW-35c in H157, A549, H82 and Beas2B cells. FIG. 11 depicts the results of a 96 hr MTS dose response experiments for compound 39-TDW-3 in H157, A549, and H82 cells. FIG. 12 depicts the results of a 96 hr MTS dose response experiments for compound 39-TDW-12c in […], and A549 cells. FIG. 13 depicts the results of a 96 hr MTS dose response experiments for compound 39-TDW-20c in H157, and H82 cells. FIG. 14 depicts the results of a 96 hr MTS dose response experiments for compounds 39-TDw-47c and 39-TDW-43 in H157 cells. FIG. 15 depicts the results of a 96 hr MTS dose response experiments for compounds 42-TDW-9, 42-TDW-4c/6, 40-TDW-35, 42-TDW-38 and BENSpm in H157 cells. FIG. 16 depicts the results of a 96 hr MTS dose response experiments for compounds 46-TDW-34c, 42-TDW-12, 40-TDW-48, 46-TDW-44c and BENSpm in H157 cells. FIG. 17 depicts the results of a 96 hr MTS dose response experiments for compounds 42-TDW-20c, 46-TDW-22, 46-TDW-39, 49-TDW-29c and BENSpm in H157 cells. FIG. 18 depicts the results of a 96 hr MTS dose response experiments for compounds 39-TDW-43, 42-TDW-48c, 46-TDW-9, 46-TDW-23c and BENSpm in H157 cells. FIG. 19 depicts the results of a 96 hr MTS dose response experiments for compounds 42-TDW-35c, 46-TDW-44 and BENSpm in H157 cells.
The IC50 is the point on the concentration scale where inhibition reaches its midpoint. A lower IC50 goes with greater potency in that assay. Compound `Cc1c(CNCCCNCCCNCCCNCc2cccc(-c3ccccc3)c2C)cccc1-c1ccccc1` [40-TDW-48] gave an IC50 of 1 to 5 µM.

Take `CC(C)=CCNCCCNCCCNCCCNCC=C(C)C` [SV-53-18C2]: the IC50 is 10 to 50 µM.

On to `C#CC(=O)NCCCNCCCNCCCNC(=O)C#C` [44-DHEJ-41], for which the IC50 fell in the range of 7.16 to 35.8 µM.

For `c1ccc(-c2ccccc2CNCCCCNCCCNCc2ccccc2-c2ccccc2)cc1` [42-TDW-35c], the IC50 is 1 to 5 µM. For the compound `CCC(CC)CNCCCNCCCNCCCNCC(CC)CC` [40-TDW-28], the IC50 is 10 to 50 µM.

The assay is the same for the next values; noted with them: Homo sapiens, NCI-H157, 96 hr exposure, a range means IC50 lies between the two tested concentrations.
The compound `CCNCCCNCCCNCCC(C)N` (centres unmarked) [55-DHEJ-7C] came in with an IC50 of more than 50 µM.

In turn, `CCNCCCNCCCNCCCNC(C)C` [DG-52-28] came in with an IC50 of 1 µM. Turning to `N=C(NCCCNCCCNCCCNC(=N)Nc1ccccc1)Nc1ccccc1` [B188-2], the IC50 is 5 to 10 µM. Still for that read-out and setting: in the case of `N=C(NCCCNCCCCNCCCNC(=N)NCC(c1ccccc1)c1ccccc1)NCC(c1ccccc1)c1ccccc1` [XBI-54-9B] it was more than 50 µM; in that of `CCC(CC)CNCCCCNCCCNCC(CC)CC` [46-TDW-12], more than 50 µM; in that of `CC(C)CNCCCNCCCNCCCNCC(C)C` [DG-52-29C], more than 50 µM. For `CC(N)CCNCCCNCc1ccc(-c2ccccc2)cc1` (centres unmarked) [55-DHEJ-26], the IC50 is more than 50 µM. Still for that read-out and setting: in the case of `CCNCCCN(CCCNCC)CCCNCC` [55-DHEJ-31C] it was more than 50 µM. As to `CCNCCCNCCCCNCCC(c1ccccc1)c1ccccc1` [42-TDW-40c], the IC50 is 5 to 10 µM.

`CCNCCCNCCCNCCC(C)NCC1CC1` (centres unmarked) [55-DHEJ-37C]: the IC50 was more than 50 µM.

Regarding `CCNCCCNCCCCCNCCCNCC` [44-DHEJ-48C], the IC50 was more than 50 µM. Compound `CC(CCNCCCCCCCNCCC(C)NCC(F)(F)F)NCC(F)(F)F` (centres unmarked) [51-DHEJ-18] displayed an IC50 of 10 to 50 µM. On the same count and under the same terms, the result for `NCCCCCCNCCCCCCNCCCc1nc2ccccc2[nH]1` [50-DHEJ-3C] reads more than 50 µM; that for `N=C(NCCCNCCCCNCCCNC(=N)NCCC(c1ccccc1)c1ccccc1)NCCC(c1ccccc1)c1ccccc1` [XBI-54-8B], more than 50 µM. `CCNCCCCCNCCCNCCCNCC` [51-DHEJ-B] yielded an IC50 of more than 50 µM.

With `N=C(NCCCNCCCNCCCNC(=N)NC(=N)NCCC(c1ccccc1)c1ccccc1)NC(=N)NCCC(c1ccccc1)c1ccccc1` [XBI-54-12D], the IC50 was 10 to 50 µM. The same measure, in the same setting: the result for `O=C(CCc1nc2ccccc2[nH]1)NCCCNCCCNCCCNC(=O)CCc1nc2ccccc2[nH]1` [44-DHEJ-38] reads 21.9 µM; that for `CCNCCCNCCCNCCCCCN` [51-DHEJ-C], more than 50 µM; that for `COc1cc(C(C)(C)C)c(C(C)(C)C)cc1CNC(C)CCNCCCNCCC(C)NCc1cc(C(C)(C)C)c(C(C)(C)C)cc1OC` (centres unmarked) [51-DHEJ-8], more than 50 µM. `N=C(NCCCNCCCCNCCCNC(=N)NC(=N)NCC(c1ccccc1)c1ccccc1)NC(=N)NCC(c1ccccc1)c1ccccc1` [XBI-54-14B] yielded a half-maximal inhibitory concentration (IC50) of 10 to 50 µM.

In the case of `CCNCCCCNCCCNCCCNCC` [YZ33050c], the IC50 is approximately 1 µM. Take `CCNCCCNCCCNCCCCNCC1CC1` [YZ33049]: the IC50 was approximately 1 µM. Still for that read-out and setting: in the case of `CC(CCNCCCNCCC(C)NCc1cc(F)c(F)cc1F)NCc1cc(F)c(F)cc1F` (centres unmarked) [44-DHEJ-5C] it was more than 31 µM; in that of `N=C(NCCCNCCCCNCCCNC(=N)NC(=N)NCCC(c1ccccc1)c1ccccc1)NC(=N)NCCC(c1ccccc1)c1ccccc1` [XBI-54-13D], 10 to 50 µM; in that of `CNC(=N)NCCCNCCCCCCCNCCCNC(=N)NC` [B181], 5 to 10 µM. Same read-out and setting: the result for `C/N=C(\NC)NCCCNCCCNCCCN/C(=N/C)NC` [B182] reads 5 to 10 µM.

`CCNCCCNCCCCCNCCCN` [44-DHEJ-49] came in with an IC50 of 1 to 5 µM. Turning to `CC(CCNCCCNCCC(C)NCC1CC1)NCC1CC1` (centres unmarked) [55-DHEJ-35C], the IC50 is 10 to 50 µM. In the case of `N=C(NCCCNCCCCCCCNCCCNC(=N)NC(=N)NCCC(c1ccccc1)c1ccccc1)NC(=N)NCCC(c1ccccc1)c1ccccc1` [XBI-54-13B], the IC50 fell in the range of 10 to 50 µM. For `N=C(NCCCNCCCCCCCNCCCNC(=N)Nc1ccccc1)Nc1ccccc1` [B205′-1], the IC50 came out at 50 µM. For `CCNCCCNCCCCCNCCCNCC(C)CC` (centres unmarked) [51-DHEJ-A], the IC50 was in the range of 10 to 50 µM. Still for that read-out and setting: the result for `NCCCCCNCCCNCCCNCCCCN` [YZ33035] reads more than 10 µM; that for `N=C(NCCCNCCCCCCCNCCCNC(=N)NC(=N)NCC(c1ccccc1)c1ccccc1)NC(=N)NCC(c1ccccc1)c1ccccc1` [XBI-54-11C], 10 to 50 µM. The compound `NCCCCCNCCCNCCCNCCCCCN` [YZ33041] displayed an IC50 of more than 10 µM. In turn, `CCCCNCCCCNCCCCNCCCNCC` [YZ33049c] gave an IC50 of 1 to 10 µM. In the case of `O=C(NCCCNCCCNCCCNC(=O)c1nc2ccccc2[nH]1)c1nc2ccccc2[nH]1` [44-DHEJ-40C], the IC50 was more than 26.1 µM. On the same count and under the same terms, in the case of `CCNCCCNCCCNCCCNC(C)CC` (centres unmarked) [DG-52-27C] it was 0.5 to 1 µM; in that of `N=C(NCCCNCCCNCCCNC(=N)NC(=N)NCC(c1ccccc1)c1ccccc1)NC(=N)NCC(c1ccccc1)c1ccccc1` [XBI-54-12C], 10 to 50 µM; in that of `CCNCCCNCCCCC(C)NCCCNCC` (centres unmarked) [55-DHEJ-24C], more than 50 µM. On the same count and under the same terms, the result for `CCCCNC(C)CCNCCCCCCCNCCC(C)NCC` (centres unmarked) [51-DHEJ-49C] reads more than 50 µM. On to `CNC(=N)NCCCNCCCNCCCNC(=N)NC` [B179-1], for which the IC50 is 10 to 50 µM. The same measure, in the same setting: the result for `c1cc2ccc3cccc4c(CCCCNCCCNCCCNCCCNCCCCc5cc6cccc7ccc8cccc5c8c76)cc(c1)c2c34` [40-TDW-26c] reads 10 to 50 µM; that for `CCNCCCNCCCNCCCCN` [YZ33046], more than 10 µM; that for `Fc1cc(F)c(CNCCCNCCCNCCCNCc2cc(F)c(F)cc2F)cc1F` [44-DHEJ-10C], more than 29 µM.

The test system is the same in the next assay. Description: Polyamine levels in H157 cells following treatment. Type of assay: cell-based, human. The note with it: 1 uM, 24 hr. The procedure:
(§1) Putrescine, spermidine, and spermine polyamine levels in H157 and H82 cells following exposure to select compounds were performed. Polyamine levels were determined using the precolumn dansylation labeling, reverse-phase high-pressure liquid chromatography method as described by Kabra et al., J. Chromotography, 380:19 (1986). The results are show in Tables 6 and 11 for H157 and H82 cells respectively. The compound identifier, treatment concentration, observed polyamine level, and exposure time are listed in columns 1, 2, 3, and 4 respectively. Polyamine levels are reported as increased (inc), decrease (dec), or no change (N/C). In some case the specific levels of putrescine, spermidine, and/or spermine are listed.
`CCCCNCCCNCCCNCCCNCC` [ZQW-19]: the “Polyamine Level” value is “N/C”.

The assay is the same for the next values; noted with them: 10 uM, 24 hr, inc = increased, dec = decrease, N/C = no change.
On to `CCNCCCN(CCCN)CCCCCCCNCCCN` [ZQW-27-9], for which the “Polyamine Level” value is reported as “N/C”. The same measure, in the same setting: in the case of `CCNCCCNCCCNCCCNCC` [BENSpm, reference compound] it was “N/C”; in that of `C1CCCC(CNCCCNCCCNCCCNCC2CC2)CC1` [CPCHENSpm], “slight dec”. `CCCCNCCCNCCCNCCCNCC` [ZQW-19]: the “Polyamine Level” value is “dec ~50%”.

Staying with this assay, now noted: spermine (Spm), 10 uM, 24 hr.
Consider `C1CCCC(CNCCCNCCCNCCCNCC2CC2)CC1` [CPCHENSpm], for which the “Polyamine Level, Spm” value is listed as “inc”.

For a further assay, the system named is H82 cells. Description: Polyamine levels in H82 cells following treatment. The class given is cell-based, human. The note with it: 0-10 uM, 24 hr. The procedure: as §1
Regarding `CCCCNCCCNCCCNCCCNCC` [ZQW-19], the “Polyamine Level” value is reported as “slow dec”.

Still in this assay, the particulars now being: 10 uM, 24 hr.
As for `CCNCCCN(CCCN)CCCCCCCNCCCN` [ZQW-27-9], the “Polyamine Level” value is listed as “dec”. As for `C1CCCC(CNCCCNCCCNCCCNCC2CC2)CC1` [CPCHENSpm], the “Polyamine Level” value is “slight inc, and N/C”.

As for `CCCCNCCCNCCCNCCCNCC` [ZQW-19], the “Polyamine Level” value is recorded as “dec ~50%”.
